According to patent US8871788B2, “Substituted N-alkyl and N-acyl tetrahydro-isoquinoline derivatives, preparation and therapeutic use thereof” (Sanofi, priority 2010, dated 2014):

Columns and labels:
[1] = test system: Rats; assay: Forced-Swimming Test in Rats; type: in vivo, rat; conditions: p.o. twice, 0.1, 1, and 10 mg/kg, 6-min test
Procedure: This example further illustrates the study of efficacy of the compounds of this invention as antidepressive agents in animal models.
The procedure was a modification of that described by Porsolt et al. (1977) Depression: a new animal model sensitive to antidepressant treatments. Nature 266:730-2. Rats were placed in individual glass cylinder (40 cm height, 18 cm diameter) containing water (22-25° C.) to a height of 15 cm. Two swimming sessions were conducted (a 15-min training session followed 24 h later by a 6-min test). After each swimming session, rats were placed under a heating lamp to avoid hypothermia. The duration of immobility was measured during the 6-min test. Example 1 of this invention was administered p.o. twice (15 min pre-test followed by first injection 24 h prior to […]) at three different dosages of 0.1, 1, and 10 mg/kg. The compound is active at all of these three dosage levels.

[2] = target: Rat H3 (Rattus norvegicus, UniProt Q9QYN8); assay: Rat H3 radioligand binding (similar procedure); conditions: rat H3, similar procedure to rhesus binding
Procedure: (§1) Rhesus H3 radioligand binding assay was performed using rhesus H3 receptor membranes (prepared as described above), [3H]-Methylhistamine (Perkin Elmer) and WGA SPA beads (wheat germ agglutinin scintillation proximity assay) beads (Amersham). The assay was performed in 96-well Opti-Plates (Packard). Each reaction contained 50 μl rhesus H3 membranes (20-30 μg total protein), 50 μl WGA SPA beads (0.1 μg) and 50 μl of 83Ci/mmol [^3H]-Methylhistamine (final concentration 2 nM) and 50 μl of tested compound. The compounds of this invention and/or vehicle were diluted with binding buffer from 10 mM DMSO stocks. Assay plates were sealed with TopSeal (Perkin Elmer) and mixed on shaker (25° C., 1 hour). Assay plates were read on TopCount scintillation counter (Packard). Results were analyzed by Hill transformation and Ki values were determined by Cheng-Prusoff equation. Similar procedure was employed to determine the binding data for rat.

[3] = target: T1, rhesus (Macacca Mulatta) H3 receptor (Macaca mulatta, UniProt Q865E1); assay: Rhesus H3 [3H]-Methylhistamine radioligand binding assay (SPA); design: species or system rhesus monkey (Macacca Mulatta); conditions: [3H]-Methylhistamine 2 nM, rhesus H3 membranes, Cheng-Prusoff
T1 construct: 445 amino acid H3 receptor; expressed in transfected cells; host or cells: Flp-In T-REx 293 Cell Line (Invitrogen), pcDNA5/FRT/TO, induced with tetracycline
Procedure: (§2) Rhesus H3 membranes were prepared from the Flp-In T-REx 293 Cell Line (Invitrogen) stably transfected with pcDNA5/FRT/TO (Invitrogen) containing the rhesus monkey (Macacca Mulatta) 445 amino acid H3 receptor. (Genbank #AY231164). Stably transfected cultures were amplified in tissue culture flasks by standard tissue culture methods and induced to express rhesus H3 by exposure to 500 ng/ml tetracycline (Cellgro) for 24 hours. After induction, cells were dissociated from flasks utilizing Cell Stripper (Cellgro). Cells were centrifuged (1K×g, 5 min) and pellet frozen in an ethanol-dry ice bath to disrupt cell membranes. Frozen cell pellet was re-suspended in 5 mM HEPES (pH 7.4, Invitrogen) at 10 ml/1000 cm2 of harvested cells. The cell suspension was drawn through an 18 gauge needle (2-3×) followed by a 23 gauge needle (2-3×) to further disrupt cell membranes. The cell suspension was centrifuged (40K×g, 30 min). Cell membrane pellet was re-suspended in 5 mM HEPES (pH 7.4, Invitrogen) at a final protein concentration of 10 mg/ml. Rhesus H3 membranes were stored under liquid nitrogen prior to use in [3H]-Methylhistamine and GTPγS radioligand binding assays.
as §1

[4] = target: T2, rhesus H3 (Macaca mulatta, UniProt Q865E1); assay: GTPγS radioligand binding assay, rhesus H3 constitutive functional activity in cell membranes; type: biochemical, rhesus monkey (Macacca Mulatta); conditions: relative to basal levels
T2 construct: 445 amino acid H3 receptor; expressed in transfected cells; host or cells: Flp-In T-REx 293 Cell Line (Invitrogen), pcDNA5/FRT/TO, induced with tetracycline
Procedure: as §2

T2 sequence (Q865E1 1-445): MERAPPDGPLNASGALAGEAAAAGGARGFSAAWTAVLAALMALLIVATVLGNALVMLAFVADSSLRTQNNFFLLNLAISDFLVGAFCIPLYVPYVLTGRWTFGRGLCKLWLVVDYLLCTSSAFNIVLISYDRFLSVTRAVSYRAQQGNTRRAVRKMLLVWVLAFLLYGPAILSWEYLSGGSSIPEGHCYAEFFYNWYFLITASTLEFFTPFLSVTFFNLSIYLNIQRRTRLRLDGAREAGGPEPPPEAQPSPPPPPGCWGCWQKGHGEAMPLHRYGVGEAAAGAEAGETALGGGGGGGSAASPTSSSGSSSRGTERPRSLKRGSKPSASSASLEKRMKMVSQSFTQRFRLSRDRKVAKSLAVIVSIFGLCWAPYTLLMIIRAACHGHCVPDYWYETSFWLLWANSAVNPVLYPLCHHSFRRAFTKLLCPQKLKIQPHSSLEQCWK
T1 sequence (Q865E1 1-445): as above
Sequence of Rat H3 (Q9QYN8 whole entry): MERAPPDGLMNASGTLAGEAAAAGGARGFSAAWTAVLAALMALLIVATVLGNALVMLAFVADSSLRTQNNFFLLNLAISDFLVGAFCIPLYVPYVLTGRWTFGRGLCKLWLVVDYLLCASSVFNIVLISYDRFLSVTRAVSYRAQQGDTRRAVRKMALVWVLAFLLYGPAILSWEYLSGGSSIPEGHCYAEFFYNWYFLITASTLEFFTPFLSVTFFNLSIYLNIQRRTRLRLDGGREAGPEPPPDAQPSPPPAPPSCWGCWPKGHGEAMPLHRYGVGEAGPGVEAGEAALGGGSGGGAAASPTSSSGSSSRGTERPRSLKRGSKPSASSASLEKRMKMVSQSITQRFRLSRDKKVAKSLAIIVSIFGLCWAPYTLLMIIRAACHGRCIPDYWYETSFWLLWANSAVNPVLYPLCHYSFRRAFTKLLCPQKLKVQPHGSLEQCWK

| Ki [2] [nM] | Ki [3] [nM] | GTPγS-35 ASSAY % Inverse Agonism [4] [%] | SMILES | activity in forced-swimming test (duration of immobility) [1] |
| --- | --- | --- | --- | --- |
| 3.6 | 1.2 | – | C[C@H]1CCCN1[C@H]1CCN(c2ccc3c(c2)CCN(C2CCOCC2)C3=O)C1 [Example 1, 6-((2S,3′S)-2-Methyl-[1,3′]bipyrrolidinyl-1′-yl)-2-(tetrahydro-pyran-4-yl)-3,4-dihydro-2H-isoquinolin-1-one] | active |
| 15 | 25 | −27.7 | COc1cccc(S(=O)(=O)N2CCc3cc(N4CC[C@H](N5CCC[C@@H]5C)C4)ccc3C2)c1.O=C(O)C(F)(F)F [Example 22, 2-(3-Methoxy-benzenesulfonyl)-6-((2S,3′S)-2-methyl-[1,3′]bipyrrolidinyl-1′-yl)-1,2,3,4-tetrahydro-isoquinoline; compound with trifluoro-acetic acid] | – |
| 280 | 11 | −22.5 | COc1cccc(NC(=O)N2CCc3cc(N4CC[C@H](N5CCC[C@@H]5C)C4)ccc3C2)c1 [Example 23, 6-((2S,3′S)-2-Methyl-[1,3′]bipyrrolidinyl-1′-yl)-3,4-dihydro-1H-isoquinoline-2-carboxylic acid (3-methoxy-phenyl)-amide] | – |
| 110 | 88 | −33.2 | Cc1ccc(S(=O)(=O)N2CCc3cc(N4CC[C@H](N5CCC[C@@H]5C)C4)ccc3C2)cc1 [Example 24, 6-((2S,3′S)-2-Methyl-[1,3′]bipyrrolidinyl-1′-yl)-2-(toluene-4-sulfonyl)-1,2,3,4-tetrahydro-isoquinoline] | – |
| 75 | 1.2 | −0.5 | CCOC(=O)N1CCc2cc(N3CC[C@H](N4CCC[C@@H]4C)C3)ccc2C1 [Example 25, 6-((2S,3′S)-2-Methyl-[1,3′]bipyrrolidinyl-1′-yl)-3,4-dihydro-1H-isoquinoline-2-carboxylic acid ethyl ester] | – |
| 330 | 74 | −16.1 | C[C@H]1CCCN1[C@H]1CCN(c2ccc3c(c2)CCN(C(=O)Nc2ccc(-c4ccccc4)cc2)C3)C1 [Example 26, 6-((2S,3′S)-2-Methyl-[1,3′]bipyrrolidinyl-1′-yl)-3,4-dihydro-1H-isoquinoline-2-carboxylic acid biphenyl-4-ylamide] | – |
